Test results as given in ChEMBL document CHEMBL4706653, “Ultra-short lipopeptides against gram-positive bacteria while alleviating antimicrobial resistance” (Eur J Med Chem, 2021).
Values after ≈ are worked out from the molar mass of the structure shown. Active and inactive are the calls of the source. The calls are words filed in the database; no cut-off is given here. Residues, ends and D or L forms follow the SMILES beside them. *: point of attachment. Myristoyl = CCCCCCCCCCCCCC(=O)*; Lauroyl = CCCCCCCCCCCC(=O)*

How the values were obtained:
[1] = system: Staphylococcus epidermidis; test: Antimicrobial activity against Staphylococcus epidermidis ATCC 12228 after 18 hrs by broth microdilution method; type: functional
Staphylococcus aureus [2] = test: Antimicrobial activity against methicillin-resistant Staphylococcus aureus 75 after 18 hrs by broth microdilution method; type: functional
Staphylococcus aureus [3] = test: Antimicrobial activity against Staphylococcus aureus ATCC 25923 after 18 hrs in presence of KCl by broth microdilution method; type: functional
Staphylococcus aureus [4] = test: Antimicrobial activity against Staphylococcus aureus ATCC 25923 after 18 hrs in presence of NH4Cl by broth microdilution method; type: functional
Staphylococcus aureus [5] = test: Antimicrobial activity against Staphylococcus aureus ATCC 25923 after 18 hrs in presence of CaCl2 by broth microdilution method; type: functional
Staphylococcus aureus [6] = test: Antimicrobial activity against Staphylococcus aureus ATCC 25923 after 18 hrs in presence of ZnCl2 by broth microdilution method; type: functional
Staphylococcus aureus [7] = test: Antimicrobial activity against Staphylococcus aureus ATCC 25923 after 18 hrs in presence of FeCl3 by broth microdilution method; type: functional
Staphylococcus aureus [8] = test: Antimicrobial activity against ciprofloxacin-treated persistent form of Staphylococcus aureus ATCC 25923 assessed as bacterial killing at 8 times MIC preincubated up to 48 hrs followed by compound washout and subsequent replating on MHB agar by colony counting method; type: functional, organism-based; settings: time hrs <=48
Staphylococcus aureus [9] = test: Antimicrobial activity against ciprofloxacin-resistant Staphylococcus aureus ATCC 25923 after 18 hrs by broth microdilution method; type: functional, organism-based
[10] = system: Staphylococcus epidermidis; test: Antimicrobial activity against ciprofloxacin-resistant Staphylococcus epidermidis ATCC 12228 after 18 hrs by broth microdilution method; type: functional, organism-based
Staphylococcus aureus [11] = test: Antimicrobial activity against ciprofloxacin-resistant Staphylococcus aureus ATCC 25923 at 0.5 times MIC after 15 passages by broth microdilution method; type: functional, organism-based
Staphylococcus aureus [12] = test: Antimicrobial activity against methicillin-resistant Staphylococcus aureus 75 at 0.5 to 8 uM measured after 18 hrs in presence of ciprofloxacin by checkerboard assay; type: functional, organism-based; settings: dose 0.5-8 µM
[13] = system: Staphylococcus epidermidis; test: Antimicrobial activity against Staphylococcus epidermidis ATCC 12228 after 18 hrs in presence of polymyxin B by checkerboard assay; type: functional, organism-based
[14] = system: Staphylococcus epidermidis; test: Antimicrobial activity against ciprofloxacin-resistant Staphylococcus epidermidis ATCC 12228 after 18 hrs in presence of polymyxin B by checkerboard assay; type: functional, organism-based
Staphylococcus aureus [15] = test: Antimicrobial activity against methicillin-resistant Staphylococcus aureus 75 measured after 18 hrs in presence of polymyxin B by checkerboard assay; type: functional, organism-based
Staphylococcus aureus [16] = test: Antimicrobial activity against methicillin-resistant Staphylococcus aureus 113 measured after 18 hrs in presence of polymyxin B by checkerboard assay; type: functional, organism-based
Staphylococcus aureus [17] = test: Potentiation of ciprofloxacin-induced antimicrobial activity against ciprofloxacin-resistant Staphylococcus aureus ATCC 25923 assessed as change in ciprofloxacin MIC at 4 uM after 18 hrs by broth microdilution method relative to ciprofloxacin MIC; type: functional
[18] = system: Staphylococcus epidermidis; test: Potentiation of ciprofloxacin-induced antimicrobial activity against ciprofloxacin-resistant Staphylococcus epidermidis ATCC 12228 assessed as change in ciprofloxacin MIC at 4 uM after 18 hrs by broth microdilution method relative to ciprofloxacin MIC; type: functional
Staphylococcus aureus [19] = test: Potentiation of ciprofloxacin-induced antimicrobial activity against methicillin-resistant Staphylococcus aureus 75 assessed as change in ciprofloxacin MIC at 2 uM after 18 hrs by broth microdilution method relative to ciprofloxacin MIC; type: functional
Staphylococcus aureus [20] = test: Potentiation of ciprofloxacin-induced antimicrobial activity against methicillin-resistant Staphylococcus aureus 75 at 0.5 uM after 18 hrs by broth microdilution method; type: functional, organism-based
Staphylococcus aureus [21] = test: Potentiation of EtBr-induced antimicrobial activity against ciprofloxacin-resistant Staphylococcus aureus ATCC 25923 at 1 to 2 uM after 18 hrs by broth microdilution method; type: functional, organism-based; settings: dose 1-2 µM
Staphylococcus aureus [22] = test: Antibiofilm activity against Staphylococcus aureus ATCC 25923 at 0.5 to 8 uM after 24 hrs by crystal violet staining based assay; type: functional, organism-based; settings: dose 0.5-8 µM
Staphylococcus aureus [23] = test: Antibiofilm activity against ciprofloxacin-resistant Staphylococcus aureus ATCC 25923 at 0.5 to 8 uM after 24 hrs by crystal violet staining based assay; type: functional, organism-based; settings: dose 0.5-8 µM
Staphylococcus aureus [24] = test: Antibiofilm activity against Staphylococcus aureus ATCC 25923 at 0.5 to 8 uM after 24 hrs in presence of ciprofloxacin by checkerboard assay; type: functional, organism-based; settings: dose 0.5-8 µM
Staphylococcus aureus [25] = test: Antibiofilm activity against Staphylococcus aureus ATCC 25923 at 4 to 8 uM after 24 hrs by LIVE/DEAD (SYTO-9/PI) staining based confocal laser scanning microscopic analysis; type: functional, organism-based; settings: dose 4-8 µM
Staphylococcus aureus [26] = test: Antibiofilm activity against Staphylococcus aureus ATCC 25923 assessed as reduction in biofilm thickness after 24 hrs using LIVE/LEAD (SYTO-9/PI) staining by confocal laser scanning microscopy based 3D image analysis; type: functional, organism-based; settings: dose 4-8 µM
Staphylococcus aureus [27] = test: Antibiofilm activity against Staphylococcus aureus ATCC 25923 preformed biofilm assessed as reduction in preformed biofilm thickness after 24 hrs using LIVE/LEAD (SYTO-9/PI) staining by confocal laser scanning microscopy based 3D image analysis; type: functional, organism-based; settings: dose 32-64 µM
Staphylococcus aureus [28] = test: Antibiofilm activity against Staphylococcus aureus ATCC 25923 preformed biofilm assessed as preformed biofilm thickness at 32 uM after 24 hrs using LIVE/LEAD (SYTO-9/PI) staining by confocal laser scanning microscopy based 3D image analysis (reference value: 56 micrometer); type: functional
Lipopolysaccharide (LPS) = test: Binding affinity to LPS (unknown origin) assessed as bacterial killing at 2 times MIC preincubated for 1 hr followed by Staphylococcus aureus ATCC 25923 addition and measured after 2 hrs by colony counting method; settings: time 3.0 hrs
[29] = Binding affinity to LTA (unknown origin) assessed as bacterial killing at 2 times MIC preincubated for 1 hr followed by Staphylococcus aureus ATCC 25923 addition and measured after 2 hrs by colony counting method; settings: time 3.0 hrs
Cell membrane [30] = test: Induction of membrane disruption in Staphylococcus aureus ATCC 25923 measured after 2 hrs by propidium iodide staining based confocal laser scanning microscopic analysis; type: subcellular
Cell membrane [31] = test: Induction of membrane disruption in Staphylococcus aureus ATCC 25923 assessed as irregular atrophy at 2 to 4 times MIC measured after 2 to 4 hrs by SEM analysis; type: subcellular; settings: time 2-4 hrs
Cell membrane [32] = test: Induction of membrane disruption in Staphylococcus aureus ATCC 25923 assessed as formation of dent at 2 to 4 times MIC measured after 2 to 4 hrs by SEM analysis; type: subcellular; settings: time 2-4 hrs
Cell membrane [33] = test: Induction of membrane disruption in Staphylococcus aureus ATCC 25923 assessed as membrane blebbing at 2 to 4 times MIC measured after 2 to 4 hrs by SEM analysis; type: subcellular; settings: time 2-4 hrs
Cell membrane [34] = test: Induction of membrane disruption in Staphylococcus aureus ATCC 25923 assessed as increase in non-uniform cell debris level at 4 times MIC measured after 2 to 4 hrs by SEM analysis; type: subcellular; settings: time 2-4 hrs
Cell membrane [35] = test: Induction of membrane disruption in Staphylococcus aureus ATCC 25923 assessed as increase in cell content leakage at 4 times MIC measured after 2 to 4 hrs by SEM analysis; type: subcellular; settings: time 2-4 hrs
Cell membrane [36] = test: Induction of membrane disruption in Staphylococcus aureus ATCC 25923 assessed as cell lysis at 4 times MIC measured after 2 to 4 hrs by SEM analysis; type: subcellular; settings: time 2-4 hrs
Staphylococcus aureus [37] = test: Induction of reactive oxygen species generation in Staphylococcus aureus ATCC 25923 by […] dye based fluorescence assay; type: functional, organism-based

Compound | MIC [1] | MIC (Staphylococcus aureus [2]) | MIC (Staphylococcus aureus [3]) | MIC (Staphylococcus aureus [4]) | MIC (Staphylococcus aureus [5]) | MIC (Staphylococcus aureus [6]) | MIC (Staphylococcus aureus [7]) | Activity (Staphylococcus aureus [8]) | Activity (Staphylococcus aureus [9]) | Activity [10] | Activity (Staphylococcus aureus [11]) | Activity (Staphylococcus aureus [12]) | Activity [13] | Activity [14] | Activity (Staphylococcus aureus [15]) | Activity (Staphylococcus aureus [16]) | fold change (FC) (Staphylococcus aureus [17]) | fold change (FC) [18] | fold change (FC) (Staphylococcus aureus [19]) | Activity (Staphylococcus aureus [20]) | also measured
CCCCCCCCCCCC(=O)N[C@@H](CCCNC(=N)N)C(=O)N[C@@H](CCCNC(=N)N)C(=O)N[C@@H](Cc1c[nH]c2ccccc12)C(N)=O (Lauroyl-Arg-Arg-Trp-NH2) | 4 µM (≈ 2.79 µg/mL) | 4 µM (≈ 2.79 µg/mL) | 8 µM | 4 µM | 16 µM | 8 µM | 4 µM | Active | Active | Active | Active | Active | Active | Active | Active | Active | 2 | 2 | 2 | inactive | Activity (Staphylococcus aureus [21]): Active; Activity (Staphylococcus aureus [22]): Active; Activity (Staphylococcus aureus [23]): Active; Activity (Staphylococcus aureus [24]): inactive; Activity (Staphylococcus aureus [25]): Active; Activity (Staphylococcus aureus [26]): Dose-dependent effect; Activity (Staphylococcus aureus [27]): Dose-dependent effect; Activity (Staphylococcus aureus [28]): 30 um; Activity (Lipopolysaccharide (LPS)): Active; Activity [29]: Active; Activity (Cell membrane [30]): Dose-dependent effect; Activity (Cell membrane [31]): Active; Activity (Cell membrane [32]): Active; Activity (Cell membrane [33]): Active; Activity (Cell membrane [34]): Active; Activity (Cell membrane [35]): Active; Activity (Cell membrane [36]): Active; Activity (Staphylococcus aureus [37]): Active
CCCCCCCCCCCCCC(=O)N[C@@H](CCCNC(=N)N)C(=O)N[C@@H](Cc1c[nH]c2ccccc12)C(=O)N[C@@H](Cc1c[nH]c2ccccc12)C(N)=O (Myristoyl-Arg-Trp-Trp-NH2) | 16 µM (≈ 12.1 µg/mL) | 4 µM (≈ 3.02 µg/mL) | 8 µM | 4 µM | 8 µM | 8 µM | 8 µM | Active | Active | Active | Active | Active | Active | Active | Active | Active | 2 | 2 | 2 | inactive | Activity (Staphylococcus aureus [21]): Active; Activity (Staphylococcus aureus [22]): Active; Activity (Staphylococcus aureus [23]): Active; Activity (Staphylococcus aureus [24]): inactive; Activity (Staphylococcus aureus [25]): Active; Activity (Staphylococcus aureus [26]): Dose-dependent effect; Activity (Staphylococcus aureus [27]): Dose-dependent effect; Activity (Staphylococcus aureus [28]): 40 um; Activity (Lipopolysaccharide (LPS)): Active; Activity [29]: Active; Activity (Cell membrane [30]): Dose-dependent effect; Activity (Cell membrane [31]): Active; Activity (Cell membrane [32]): Active; Activity (Cell membrane [33]): Active; Activity (Cell membrane [34]): Active; Activity (Cell membrane [35]): Active; Activity (Cell membrane [36]): Active; Activity (Staphylococcus aureus [37]): Active
